{
  "source": "patent US12065442B2",
  "about": "“Tropomyosin receptor kinase (TRK) degradation compounds and methods of use” (Cullgen (Shanghai), Inc., priority 2018, dated 2024)",
  "data": [
    {"tested_on": "KM12 cells", "assay": "Cell viability assay (CellTiter-Glo) in KM12 cells", "assay_type": "cell-based", "conditions": "Homo sapiens, 72 h; Table 2; KM12 cell viability, CellTiter-Glo, 3 days; read-out: IC50", "units": {"IC50": "nM"}, "values": [
      {"molecule": "Cc1ncsc1-c1ccc(CNC(=O)[C@@H]2C[C@@H](O)CN2C(=O)[C@@H](NC(=O)CCOCCOCCC(=O)N2CCN(c3ccc(C(=O)Nc4n[nH]c5ccc(Cc6cc(F)cc(F)c6)cc45)c(NC4CCOCC4)c3)CC2)C(C)(C)C)cc1", "note": "[CPD-038, (2S,4R)-1-((S)-2-(3-(2-(3-(4-(4-((5-(3,5-Difluorobenzyl)-1H-indazol-3-yl)carbamoyl)-3-((tetrahydro-2H-pyran-4-yl)amino)phenyl)piperazin-1-yl)-3-oxopropoxy)ethoxy)propanamido)-3,3-dimethylbutanoyl)-4-hydroxy-N-(4-(4-methylthiazol-5-yl)benzyl)pyrrolidine-2-carboxamide]", "IC50": 359},
      {"molecule": "Cc1ncsc1-c1ccc(CNC(=O)[C@@H]2C[C@@H](O)CN2C(=O)[C@@H](NC(=O)CCOCCOCCOCCC(=O)N2CCN(c3ccc(C(=O)Nc4n[nH]c5ccc(Cc6cc(F)cc(F)c6)cc45)c(NC4CCOCC4)c3)CC2)C(C)(C)C)cc1", "note": "[CPD-039, (2S,4R)-1-((S)-2-(tert-butyl)-16-(4-(4-((5-(3,5-Difluorobenzyl)-1H-indazol-3-yl)carbamoyl)-3-((tetrahydro-2H-pyran-4-yl)amino)phenyl)piperazin-1-yl)-4,16-dioxo-7,10,13-trioxa-3-azahexadecanoyl)-4-hydroxy-N-(4-(4-methylthiazol-5-yl)benzyl)pyrrolidine-2-carboxamide]", "IC50": 222},
      {"molecule": "Cc1ncsc1-c1ccc(CNC(=O)[C@@H]2C[C@@H](O)CN2C(=O)[C@@H](NC(=O)COCCOCCOCCOCCOCC(=O)N2CCN(c3ccc(C(=O)Nc4n[nH]c5ccc(Cc6cc(F)cc(F)c6)cc45)c(NC4CCOCC4)c3)CC2)C(C)(C)C)cc1", "note": "[CPD-040, (2S,4R)-1-((S)-2-(tert-butyl)-20-(4-(4-((5-(3,5-Difluorobenzyl)-1H-indazol-3-yl)carbamoyl)-3-((tetrahydro-2H-pyran-4-yl)amino)phenyl)piperazin-1-yl)-4,20-dioxo-6,9,12,15,18-pentaoxa-3-azaicosanoyl)-4-hydroxy-N-(4-(4-methylthiazol-5-yl)benzyl)pyrrolidine-2-carboxamide]", "IC50": 600},
      {"molecule": "Cc1ncsc1-c1ccc(CNC(=O)[C@@H]2C[C@@H](O)CN2C(=O)[C@@H](NC(=O)CCOCCOCCOCCOCCC(=O)N2CCN(c3ccc(C(=O)Nc4n[nH]c5ccc(Cc6cc(F)cc(F)c6)cc45)c(NC4CCOCC4)c3)CC2)C(C)(C)C)cc1", "note": "[CPD-041, (2S,4R)-1-((S)-2-(tert-butyl)-19-(4-(4-((5-(3,5-Difluorobenzyl)-1H-indazol-3-yl)carbamoyl)-3-((tetrahydro-2H-pyran-4-yl)amino)phenyl)piperazin-1-yl)-4,19-dioxo-7,10,13,16-tetraoxa-3-azanonadecanoyl)-4-hydroxy-N-(4-(4-methylthiazol-5-yl)benzyl)pyrrolidine-2-carboxamide]", "IC50": 400},
      {"molecule": "Cc1ncsc1-c1ccc(CNC(=O)[C@@H]2C[C@@H](O)CN2C(=O)[C@@H](NC(=O)COCCOCC(=O)N2CCN(c3ccc(C(=O)Nc4n[nH]c5ccc(Cc6cc(F)cc(F)c6)cc45)c(NC4CCOCC4)c3)CC2)C(C)(C)C)cc1", "note": "[CPD-042, (2S,4R)-1-((S)-2-(2-(2-(2-(4-(4-((5-(3,5-Difluorobenzyl)-1H-indazol-3-yl)carbamoyl)-3-((tetrahydro-2H-pyran-4-yl)amino)phenyl)piperazin-1-yl)-2-oxoethoxy)ethoxy)acetamido)-3,3-dimethylbutanoyl)-4-hydroxy-N-(4-(4-methylthiazol-5-yl)benzyl)pyrrolidine-2-carboxamide]", "IC50": "> 1000"},
      {"molecule": "Cc1ncsc1-c1ccc(CNC(=O)[C@@H]2C[C@@H](O)CN2C(=O)[C@@H](NC(=O)CCOCCOCCOCCOCCOCCC(=O)N2CCN(c3ccc(C(=O)Nc4n[nH]c5ccc(Cc6cc(F)cc(F)c6)cc45)c(NC4CCOCC4)c3)CC2)C(C)(C)C)cc1", "note": "[CPD-043, (2S,4R)-1-((S)-2-(tert-butyl)-22-(4-(4-((5-(3,5-Difluorobenzyl)-1H-indazol-3-yl)carbamoyl)-3-((tetrahydro-2H-pyran-4-yl)amino)phenyl)piperazin-1-yl)-4,22-dioxo-7,10,13,16,19-pentaoxa-3-azadocosanoyl)-4-hydroxy-N-(4-(4-methylthiazol-5-yl)benzyl)pyrrolidine-2-carboxamide]", "IC50": "> 1000"}
    ]}
  ]
}
